Data as given in patent US20130064859A1, “COMBINATORIAL VITAMIN D AND PROBIOTIC THERAPY FOR INFLAMMATORY BOWEL DISEASE” (priority 2011, published 2013).

How the values were obtained:
CD4+Foxp3+ T cells = experiment: mouse DC / CD4+ T cell co-culture, Foxp3+ Treg induction; assay type: cell-based, mice; conditions: FIG. 6B
Protocol: In a particular example of the method of paragraph, mouse dendritic cells (DCs) are treated with PSA or PSA and vitamin D metabolite for 16-18 hrs, washed and co-cultured with naïve CD4+ T cells. After 4 days, cells were collected and stained for Foxp3. Percentage of Foxp3+ CD4+ T cells were determined by flow cytometry.
(§1) (A) Mouse DCs were stimulated with PSA (or PBS control), and Cyp27b1 transcript levels were measured by qRT-PCR. PSA induces the expression of the vitamin D-activating enzyme from WT, but not TLR2−/− DCs. (B) Mouse DCs were treated with PSA, washed and co-cultured with naïve CD4+ T cells. After 4 days, PSA increased Foxp3+ Treg proportions (see % in box). The vitamin D metabolite 25D augmented PSA-induced Tregs. (C) Human monocytes were treated with PSA or vehicle, washed and co-cultured with CD4+ T cells from PBMCs of the same donor. The MFI for Foxp3 among CD4+CD25+ T cells is shown with or without TGFβ. Collectively, we propose a model whereby PSA signals through TLR2 on DCs to induce expression of Cyp27b1, which converts 25D to 1,25D. The vitamin D receptor (VDR) in T cells responds to 1,25 D, and along with other PSA-specific signals, mediated the development of Treg cells (see diagram in FIG. 1).
(§2) Vitamin D enhances PSA-mediated induction of mouse and human Tregs. […]

[1] = tested on: Foxp3 expression in human Tregs; experiment: human monocyte / CD4+ T cell co-culture, Foxp3 MFI; assay type: cell-based; conditions: FIG. 6C
Protocol: In a particular example of the method of paragraph, in vitro, human monocytes are treated with PSA or vehicle for 16-18 hrs, washed and co-cultured with CD4+ T cells from PBMCs of the same donor with or without TGFb. After 2 days, cells were collected and stained for Foxp3. MFI of Foxp3 among CD4+CD25+ T cells was determined by flow cytometry.
as §1, §2

TNBS colitis = experiment: TNBS experimental colitis in mice treated with PSA; assay type: in vivo; conditions: for IL-10 expression in MLNs (qRT-PCR) / IL-17 levels in MLNs (qRT-PCR): FIG. 3C
Protocol: (§3) (A) Mice were treated with PSA or PBS. Analysis of the percentage of Foxp3+ cells within the CD4+CD25+ population in the MLNs is shown, indicated by the numbers in the top right quadrant. (B) CD4+CD25+ cells were purified from the MLNs of colitic PBS or PSA-treated mice and incubated with CFSE-pulsed CD4+CD25-responder cells in an in vitro suppression assay. Numbers indicate the percentage of cells undergoing at least one cellular division at 2 different ratios of effector T cells (Teff) and regulatory T cells (Treg). Top panels show results from healthy mice (−TNBS). (C) Disease scores for mice pre- and post-treated with PSA during TNBS colitis were assessed by a blinded pathologist. P values determined by a two-tailed Mann-Whitney U-test. **p value of <0.01. (D) Colons from mice were fixed, sectioned and stained with H&E to determine disease severity. Representative sections are shown.
(A) C57B1/6 WT or TLR2−/− animals were gavaged with purified PSA (or PBS) prior to TNBS administration. 5-6 days after onset of TNBS colitis, colons of animals were fixed, sectioned and H&E stained. Representative histological sections are shown. […] Each symbol represents a separate animal. *p value of <0.05. NS, not significant. (C) RNA was extracted from the MLNs of indicated mice either treated with PBS or PSA, and the expression levels of IL-10 and IL-17A were assayed by qRT-PCR. (D) Percentages of CD4+CD25+Foxp3+ T cells in the MLNs of TLR2−/−mice treated with PBS or PSA. Plots are gated on CD4+ T cells. Note: PSA increases CD4+CD25+Foxp3+ Treg proportions in WT mice by ˜25%.
B. fragilis induces Tregs that prevent and cure experimental IBD. Maintenance of homeostasis toward the intestinal microbial milieu is critical to the preservation of health, and defects in mucosal tolerance lead to disorders such as IBD. In animal models of IBD, intestinal inflammation is suppressed by various subsets of regulatory T cells (Tregs). Tregs emerge from the thymus and are marked by expression of CD4, CD25 and the transcription factor Foxp3 (Forkhead Box transcription factor for Treg differentiation). We have recently reported that the prominent human commensal, B. fragilis, directs the development of Foxp3+ Tregs in the gut during protection from experimental colitis in animal models. […] The Mazmanian laboratory employs 2 models of experimental colitis: 1) the T cell transfer model whereby various T cell subsets are transferred into RAG−/− animals allowing for the functional study of both pro- and anti-inflammatory T cells; 2) the TNBS (2,4,6-trinitrobenzene sulfonic acid) model, where rectal treatment of animals with an immunogenic chemical results in gut inflammation.
(§4) Here, we present data from the TNBS model, representative of results similar to the T cell transfer model. […] During protection from colitis (TNBS+PSA), PSA increases in-the percentage of Foxp3+ cells within the CD4+CD25+ compartment of the MLNs. […] The suppressive capacity of Tregs during PSA-mediated protection from intestinal inflammation was determined by in vitro suppression assays.
To examine if PSA can prevent and cure established colitis, animals were induced for TNBS colitis, and groups were either treated with vehicle (TNBS+PBS) or PSA either: 1) prior to disease induction (pre-TNBS+PSA) or 2) following rectal TNBS administration (post-TNBS+PSA).
PSA protection from experimental IBD requires TLR2 signaling. Multiple studies have implicated TLR signaling by innate immune cells during inflammatory disease. […] Wild-type (WT) or TLR2−/− animals were orally treated with PSA or PBS prior to induction of TNBS colitis. […] In contrast, TLR2−/− mice treated with PSA had marked inflammation including thickening of the mucosa, infiltrating leukocytes and crypt loss (FIG. 3A). […] As previously reported, WT animals were protected from colitis by PSA.

Cyp27b1 = experiment: qRT-PCR of Cyp27b1 in bone marrow-derived dendritic cells treated with PSA; assay type: cell-based, mice; conditions: FIG. 6A
Protocol: as §1
Vitamin D enhances PSA-mediated induction of mouse and human Tregs. As outlined above, the ability of PSA to protect against IBD in mice involves the gut-specific conversion of CD4+ cell into IL-10-secreting Foxp3+ Tregs. We hypothesize that vitamin D may play a pivotal role in this process, given our novel finding that PSA induces the vitamin D-activating machinery in mice (see FIG. 5C). […]

[2] = tested on: proliferation of CD4+CD25- responder T cells; experiment: in vitro suppression assay with CD4+CD25+ Tregs from MLNs of treated mice; assay type: cell-based; conditions: Tregs from PSA fed mice (TNBS+PSA) vs untreated animals, FIG. 2B
Protocol: as §3, §4

[3] = PSA following the onset of disease, data not shown

Substance: 25-hydroxyvitamin D [25D, reference compound]
- effect on PSA-induced increase of CD4+Foxp3+ T cells (CD4+Foxp3+ T cells; co-treatment of WT BMDCs with PSA and 25D): further enhanced

Substance: TGFβ [reference compound]
- effect on PSA-induced Tregs ([1]; co-culture with or without TGFβ): does not further enhance

Substance: polysaccharide A [PSA]
- colitis disease score (TNBS colitis; PSA following rectal TNBS administration (post-TNBS+PSA)): prevented the development of disease with equal efficacy
- Foxp3 expression by gut CD4+ T cells (TNBS colitis; [3]): increased
- IL-10 expression by gut CD4+ T cells (TNBS colitis; [3]): increased
- colitis disease score (TNBS colitis; PSA prior to disease induction (pre-TNBS+PSA)): prevented the development of disease with equal efficacy
- absolute number of CD4+CD25+Foxp3+ cells in the MLNs (TNBS colitis; PSA-treated vs PBS or non-colitic animals, data not shown): significantly higher
- IL-10 expression in MLNs (qRT-PCR) (TNBS colitis; TLR2-/- animals): no longer up-regulated
- protection from colitis (colitis score) (TNBS colitis; TLR2-/- animals, oral PSA prior to TNBS vs PBS, FIG. 3B): not protected
- percentage of CD4+Foxp3+ Tregs (TNBS colitis; TLR2-/- animals, relative to PBS controls, FIG. 3D): no differences
- IL-17 levels in MLNs (qRT-PCR) (TNBS colitis; TLR2-/- mice, PSA compared to PBS): increased
- percentage of Foxp3+ cells within the CD4+CD25+ compartment of the MLNs (TNBS colitis; TNBS+PSA vs TNBS+PBS, FIG. 2A): increases
- IL-10 expression in MLNs (qRT-PCR) (TNBS colitis; WT animals): induced
- IL-17 levels in MLNs (qRT-PCR) (TNBS colitis; WT animals): Suppression
- protection from colitis (histopathology, colitis score) (TNBS colitis; WT animals, oral PSA prior to TNBS, FIG. 3A/B): protected from disease
- increase of CD4+CD25+Foxp3+ Treg proportions (TNBS colitis; WT mice, MLNs, FIG. 3 note): ~25%
- pro-inflammatory Th17 cells (TNBS colitis; during both protection and cure of colitis, data not shown): significant decrease
- proportions of CD4+Foxp3+ T cells in culture (CD4+Foxp3+ T cells; WT BMDCs treated with PSA, over media controls): increases
- induction of Cyp27b1 expression (Cyp27b1; DCs from TLR2-/- mice): greatly diminished
- induction of Cyp27b1 expression (Cyp27b1; WT BMDC, PSA vs PBS control): 5 fold
- Foxp3 expression in human Tregs (MFI among CD4+CD25+ T cells) ([1]; human monocytes treated with purified PSA or vehicle): promotes Foxp3 expression
- suppression of T cell proliferation by Tregs from MLNs [2]: suppressed T cell proliferation to a significantly higher level
